Measurements taken from patent publication US20140322251A1, “Peptides for Progressive Treating Multi-Focal Leukoencephalopathy and Related Conditions” (priority 2013, published 2014).
“Also recorded” adds a separate entry of the source.

Assays:
[1] = tested on: HIV gp120 neurotoxicity; details: cited from earlier work; for EC50: read-out: EC50 (pM), antagonism of HIV gp120 neurotoxicity
[2] = tested on: HIV (92HT596; R5/X4 isolate) entry via CCR5, MAGI-CCR5 cells; details: peptide 1 nM, 48 hrs, mean and s.e.m of triplicate cultures; cited from earlier work
[3] = tested on: HIV (92HT596; R5/X4 isolate) entry via CXCR4, MAGI-CXC4 cells; details: peptide 1 nM, 48 hrs, mean and s.e.m of triplicate cultures; cited from earlier work
[4] = tested on: chemokine receptors; details: two D-substitutions in peptide T; cited from earlier work
[5] = tested on: neuropathic pain and inflammation; details: animals; cited from earlier work
[6] = tested on: CCR5/CCR2 chemokine receptor system, CCL2 chemotaxis of human monocytes; assay: CCL2 (MCP-1) mediated human monocyte chemotaxis (FIG. 1); assay type: cell-based; details: FIG. 1, triplicate determinations
Excerpt: FIG. 1 illustrates that all-D-pentapeptide analogs of Peptide T inhibit CCL2 mediated human monocyte chemotaxis.
In order to overcome this limitation we hereby disclose an unexpected method of preserving potency. […] B. Pert, J. D. Rone, R. Nixon, M. Vance, B. Sandler, M. D. Lumpkin, D. J. Dieter, and M. R. Ruff. 1999. Peptide T blocks GP120/CCR5 chemokine receptor-mediated chemotaxis. Clin Immunol.
The FIG. 1 assay measured the peptide's ability to block CCL2 (MCP-1) chemotaxis.

Substance	EC50 [1]	BFU (% Control) MAGI-CXC4 [3]	other results
TTNYT	10 pM	45 +/− 7 % Control	BFU (% Control) MAGI-CCR5 [2]: 23 +/− 4 % Control
(D-A1, D-T8)-peptide T-NH2			loss of potency versus peptide T [4]: over 100,000 fold
TTSFT [reference compound]	100000 pM		
TENYT [reference compound]			EC50 (pM), antagonism of HIV gp120 neurotoxicity [1]: inactive
TDNYT [reference compound]	3000 pM		
ETWYS	13 pM	65 +/− 5 % Control	BFU (% Control) MAGI-CCR5 [2]: 21 +/− 7 % Control
(all-D)-TTNYT			oral efficacy [5]: prevent and reverse neuropathic pain and block inflammation; block of CCL2 (MCP-1) chemotaxis / CCR5/CCR2 chemokine receptor system [6]: blocked
STNYT	3 pM		
TTSYT	10 pM	35 +/− 7 % Control	BFU (% Control) MAGI-CCR5 [2]: 23 +/− 5 % Control
NTSYG	10 pM	60 +/− 8| % Control	
SSTYR	1 pM		
TTNdYT [reference compound]			EC50 (pM), antagonism of HIV gp120 neurotoxicity [1]: inactive; activity / biopotency (gp120 neurotoxicity) [1]: loss of all activity; also recorded: completely loses activity
